In patent US9879014B2, “Method for screening substance capable of inhibiting abnormal splicing causative of onset or progress of disease” (KYOTO UNIVERSITY, priority 2013, dated 2018):
“Also recorded” adds a separate entry of the source.

Tests used:
[1] = test system: pre-mRNA of the mutant human IKBKAP gene having the IVS20+6T→C mutation; test: two-color fluorescent FD-type splicing reporter construct in HeLa cells (GFP/RFP); type: cell-based; settings: HeLa cells transfected with FD-type reporter construct
Text: A reporter construct (FD type) as illustrated in FIG. 1B was produced by utilizing exons 19 to 21 of a mutant human IKBKAP gene having the IVS20^+6T→C mutation as illustrated in FIG. 1A. In the reporter construct, a gene for a GST protein, exons 19 to 21 of a mutant human IKBKAP gene, a red fluorescent protein (RFP), and a green fluorescent protein (GFP) were connected in this order downstream of a CAG promoter. When this reporter construct underwent wild-type splicing, the gene for a GST protein and exons 19 to 21 of the mutant human IKBKAP gene were joined to form an mRNA of 3n+1 bases in length, and a stop codon (UAA) of the RFP gene was out-of-frame, so that the GFP gene was translated in the frame to express a green fluorescent protein. On the other hand, when this reporter construct underwent abnormal splicing, the gene for a GST protein and exons 19 to 21 of the mutant human IKBKAP gene were joined to form an mRNA of 3n bases in length, so that the RFP gene and the stop codon (UAA) of the RFP gene were translated in the frame to express a red fluorescent protein. The FD-type reporter construct was used to screen a compound capable of inhibiting abnormal splicing of a pre-mRNA that was transcribed from the construct. Specifically, the FD-type reporter construct was transfected into HeLa cells, and then a test compound was brought into contact with the HeLa cells and cultured. Next, fluorescence observation was performed after a predetermined time, and the fluorescence intensity ratio (GFP/RFP) of GFP (normal splicing products) to RFP (abnormal splicing products) was compared to the control (e.g., a solvent alone or kinetin (reference compound 1)), so that the compound with higher fluorescence intensity was determined. […] The FD-type reporter construct was transfected into HeLa cells, and then the compound 1 was brought into contact with the HeLa cells and cultured (compound concentration: […], and 50.0 μM). Next, fluorescence observation was performed each after 24 hours and 48 hours, and the fluorescence intensity ratio (GFP/RFP) was determined. […]

[2] = test system: endogenous IKBKAP gene with the IVS20+6T→C mutation in cells of FD patients; test: RT-PCR of spliced products of the endogenous IKBKAP gene in cells of FD patients; type: cell-based, human; settings: cultured 60 hours
Experimental: The cells of FD patients were obtained from Coriell Institute. The endogenous IKBKAP gene in the cells of FD patients had the IVS20^+6T→C mutation. Compound 1 and the kinetin were added at a concentration of 2 μM or 50 μM to a culture medium of the cells of FD patients. The cells were cultured for 60 hours, collected, and then subjected to RT-PCR. As the control, untreated cells and DMSO (solvent) treated cells were used. FIG. 4 illustrates the results.

[3] = test system: IKBKAP gene with the IVS20+6T→C mutation; settings: disclosed in U.S. Pat. No. 7,737,110; cited from earlier work

Structure (SMILES) | fluorescence intensity ratio (GFP/RFP) of GFP (normal splicing) to RFP (abnormal splicing) ([1]; 0.4, 2.0, 0.10, and 50.0 μM, after 24 hours and 48 hours) | degree of increase of GFP/RFP ratio compared with kinetin ([1]; after 24 hours and 48 hours) | screening outcome: GFP/RFP fluorescence intensity ratio compared to the control (solvent alone or kinetin) ([1]; after a predetermined time) | spliced products (mRNAs) of the endogenous IKBKAP gene by RT-PCR ([2]; 2 μM or 50 μM) | abnormal splicing inhibition activity compared with kinetin ([2]; RT-PCR) | concentration capable of inhibiting abnormal splicing ([2]; RT-PCR) | inhibition of abnormal splicing of the IKBKAP gene with the IVS20+6T→C mutation [3]
Clc1nc(NCc2ccco2)c2nc[nH]c2n1 [compound 1, 2-chloro-N-(2-furanylmethyl)-7H-purin-6-amine] | increased in a concentration-dependent manner; also recorded: increases the GFP/RFP ratio in a concentration-dependent manner | significantly higher than that of the kinetin; also recorded: superior to that of kinetin | selected as a candidate compound for inhibiting abnormal splicing | reduces the abnormal splicing products and increases the normal splicing products | about the same as that of the kinetin at a concentration of 50 μM; also recorded: superior to that of kinetin | ≤ 2 µM | –
c1coc(CNc2ncnc3nc[nH]c23)c1 [kinetin] | – | – | – | – | – | – | can inhibit abnormal splicing
